Test results as given in US9694016B2 (Novartis AG, priority 2013, dated 2017).

What follows are compounds tested against T1, b-Raf (V600E) (Homo sapiens (Human), UniProt P15056, V600E) (assay: not given). Conditions: read-out: b-Raf IC-50; AlphaScreen, 60 min pre-incubation, reaction 3 hours at room temperature.
T1 sequence (P15056 whole entry V600E): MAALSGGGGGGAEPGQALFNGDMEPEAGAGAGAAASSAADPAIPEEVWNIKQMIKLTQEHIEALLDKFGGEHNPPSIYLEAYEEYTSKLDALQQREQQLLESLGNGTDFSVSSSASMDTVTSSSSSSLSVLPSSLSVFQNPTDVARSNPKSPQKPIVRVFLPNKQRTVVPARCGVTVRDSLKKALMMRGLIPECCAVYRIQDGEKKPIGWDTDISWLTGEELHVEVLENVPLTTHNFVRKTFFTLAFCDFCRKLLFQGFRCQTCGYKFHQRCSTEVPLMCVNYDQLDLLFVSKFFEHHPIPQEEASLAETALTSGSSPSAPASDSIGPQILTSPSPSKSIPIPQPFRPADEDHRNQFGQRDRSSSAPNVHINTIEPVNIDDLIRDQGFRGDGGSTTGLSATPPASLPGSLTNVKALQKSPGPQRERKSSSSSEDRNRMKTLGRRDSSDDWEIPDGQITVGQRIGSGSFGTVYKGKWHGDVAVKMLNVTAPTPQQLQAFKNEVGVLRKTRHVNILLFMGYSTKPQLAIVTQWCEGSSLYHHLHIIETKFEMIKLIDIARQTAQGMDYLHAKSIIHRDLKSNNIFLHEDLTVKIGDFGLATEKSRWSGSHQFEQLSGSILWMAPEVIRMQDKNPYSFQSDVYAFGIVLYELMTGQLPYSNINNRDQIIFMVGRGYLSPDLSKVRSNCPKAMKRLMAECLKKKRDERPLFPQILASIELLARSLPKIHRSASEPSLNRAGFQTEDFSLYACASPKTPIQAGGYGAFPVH

Row | Compound | IC50
1 | Cc1ccc(NC(=O)c2cnnc(C(C)(C)C#N)c2)cc1-c1cc(OC2CCOCC2)nc(N2CCOCC2)c1 [Example 1153, 6-(2-cyanopropan-2-yl)-N-(4-methyl-3-(2-morpholino-6-((tetrahydro-2H-pyran-4-yl)oxy)pyridin-4-yl)phenyl)pyridazine-4-carboxamide] | 2.15 nM
2 | Cc1ccc(NC(=O)c2cnnc(C3CC3)c2)cc1-c1cc(OC2CCOCC2)nc(N2CCOCC2)c1 [Example 1154, 6-cyclopropyl-N-(4-methyl-3-(2-morpholino-6-((tetrahydro-2H-pyran-4-yl)oxy)pyridin-4-yl)phenyl)pyridazine-4-carboxamide] | 0.6 nM
3 | Cc1ccc(NC(=O)c2cnnc(C(F)(F)F)c2)cc1-c1cc(OC2CCOCC2)nc(N2CCOCC2)c1 [Example 1155, N-(4-methyl-3-(2-morpholino-6-((tetrahydro-2H-pyran-4-yl)oxy)pyridin-4-yl)phenyl)-6-(trifluoromethyl)pyridazine-4-carboxamide] | 0.66 nM
4 | Cc1ccc(NC(=O)c2ccnc(C(F)(F)F)c2)cc1-c1cc(OCCO)nc(N2CCOCC2)c1 [Example 1156, N-(3-(2-(2-hydroxyethoxy)-6-morpholinopyridin-4-yl)-4-methylphenyl)-2-(trifluoromethyl)isonicotinamide] | 0.73 nM
5 | Cc1ccc(NC(=O)c2ccnc(C3CC3)c2)cc1-c1cc(OCCO)nc(N2CCOCC2)c1 [Example 1157, 2-cyclopropyl-N-(3-(2-(2-hydroxyethoxy)-6-morpholinopyridin-4-yl)-4-methylphenyl)isonicotinamide] | 0.43 nM
6 | Cc1ccc(NC(=O)c2ccnc(C(C)(C)F)c2)cc1-c1cc(OCCO)nc(N2CCOCC2)c1 [Example 1158, 2-(2-fluoropropan-2-yl)-N-(3-(2-(2-hydroxyethoxy)-6-morpholinopyridin-4-yl)-4-methylphenyl)isonicotinamide] | 1.63 nM
7 | Cc1ccc(NC(=O)c2ccnc(C(C)(F)F)c2)cc1-c1cc(OCCO)nc(N2CCOCC2)c1 [Example 1159, 2-(1,1-difluoroethyl)-N-(3-(2-(2-hydroxyethoxy)-6-morpholinopyridin-4-yl)-4-methylphenyl)isonicotinamide] | 0.75 nM
8 | Cc1ccc(NC(=O)c2ccnc(C(F)F)c2)cc1-c1cc(OCCO)nc(N2CCOCC2)c1 [Example 1160, 2-(difluoromethyl)-N-(3-(2-(2-hydroxyethoxy)-6-morpholinopyridin-4-yl)-4-methylphenyl)isonicotinamide] | 0.55 nM
9 | Cc1ccc(NC(=O)c2ccnc(C(C)(C)C#N)c2)cc1-c1cc(OCCO)nc(N2CCOCC2)c1 [Example 1161, 2-(2-cyanopropan-2-yl)-N-(3-(2-(2-hydroxyethoxy)-6-morpholinopyridin-4-yl)-4-methylphenyl)isonicotinamide] | 1.5 nM
10 | Cc1ccc(NC(=O)c2cnnc(C3CC3)c2)cc1-c1cc(OCCO)nc(N2CCOCC2)c1 [Example 1162, 6-cyclopropyl-N-(3-(2-(2-hydroxyethoxy)-6-morpholinopyridin-4-yl)-4-methylphenyl)pyridazine-4-carboxamide] | 0.38 nM
11 | Cc1ccc(NC(=O)c2cc(C(F)(F)F)ccn2)cc1-c1cc(OCCO)nc(N2CCOCC2)c1 [Example 1163, N-(3-(2-(2-hydroxyethoxy)-6-morpholinopyridin-4-yl)-4-methylphenyl)-4-(trifluoromethyl)picolinamide] | 1.12 nM
12 | Cc1ccc(NC(=O)c2cnnc(C(F)(F)F)c2)cc1-c1cc(OCCO)nc(N2CCOCC2)c1 [Example 1164, N-(3-(2-(2-hydroxyethoxy)-6-morpholinopyridin-4-yl)-4-methylphenyl)-6-(trifluoromethyl)pyridazine-4-carboxamide] | 0.57 nM
13 | Cc1ncc(NC(=O)c2ccnc(C(F)(F)F)c2)cc1-c1cc(C2COCCO2)nc(N2CCOCC2)c1 (stereo not drawn) [Example 1165, N-(2′-(1,4-dioxan-2-yl)-2-methyl-6′-morpholino-[3,4′-bipyridin]-5-yl)-2-(trifluoromethyl)isonicotinamide] | 2.82 nM
14 | Cc1ncc(NC(=O)c2ccnc(C(C)(F)F)c2)cc1-c1cc(C2COCCO2)nc(N2CCOCC2)c1 (stereo not drawn) [Example 1166, N-(2′-(1,4-dioxan-2-yl)-2-methyl-6′-morpholino-[3,4′-bipyridin]-5-yl)-2-(1,1-difluoroethyl)isonicotinamide] | 3.28 nM
15 | Cc1ncc(NC(=O)c2ccnc(C(C)(C)F)c2)cc1-c1cc(C2COCCO2)nc(N2CCOCC2)c1 (stereo not drawn) [Example 1167, N-(2′-(1,4-dioxan-2-yl)-2-methyl-6′-morpholino-[3,4′-bipyridin]-5-yl)-2-(2-fluoropropan-2-yl)isonicotinamide] | 7.62 nM
16 | CCC(F)(F)c1cc(C(=O)Nc2cnc(C)c(-c3cc(C4COCCO4)nc(N4CCOCC4)c3)c2)ccn1 (stereo not drawn) [Example 1168, N-(2′-(1,4-dioxan-2-yl)-2-methyl-6′-morpholino-[3,4′-bipyridin]-5-yl)-2-(1,1-difluoropropyl)isonicotinamide] | 4.56 nM
17 | Cc1ncc(NC(=O)c2ccnc(C3CC3)c2)cc1-c1cc(C2COCCO2)nc(N2CCOCC2)c1 (stereo not drawn) [Example 1169, N-(2′-(1,4-dioxan-2-yl)-2-methyl-6′-morpholino-[3,4′-bipyridin]-5-yl)-2-cyclopropylisonicotinamide] | 3.01 nM
18 | CC(F)(F)c1cc(C(=O)Nc2c[nH]c(=O)c(-c3ccnc(N4CCOCC4)c3)c2)ccn1 [Example 1171, 2-(1,1-difluoroethyl)-N-(2′-morpholino-2-oxo-1,2-dihydro-[3,4′-bipyridin]-5-yl)isonicotinamide] | 25000 nM
19 | O=C(Nc1c[nH]c(=O)c(-c2ccnc(N3CCOCC3)c2)c1)c1cccc(C(F)F)c1 [Example 1174, 3-(difluoromethyl)-N-(2′-morpholino-2-oxo-1,2-dihydro-[3,4′-bipyridin]-5-yl)benzamide] | 25000 nM
20 | Cc1cc(=O)c(C(=O)Nc2cccc(C(F)(F)F)c2)cn1-c1ccnc(N2CCOCC2)c1 [Example 1175, 6-methyl-2′-morpholino-4-oxo-N-(3-(trifluoromethyl)phenyl)-4H-[1,4′-bipyridine]-3-carboxamide] | 80 nM

Each compound was assayed against T1, b-Raf (V600E) (assay: biochemical). Conditions: not given.

Row | Compound | IC50
21 | CCOc1ncc(-c2cc(C(=O)Nc3cccc(C(C)(C)O)c3)ccc2C)cc1N1CCOCC1 [Example 236, 3-(6-ethoxy-5-morpholinopyridin-3-yl)-N-(3-(2-hydroxypropan-2-yl)phenyl)-4-methylbenzamide] | 1.6 nM
22 | Cc1ccc(NC(=O)c2ccc(CO)c(C(F)(F)F)c2)cc1-c1cc(N2CCOCC2)c(=O)n(C)c1 [Example 462, 4-(hydroxymethyl)-N-(4-methyl-3-(1-methyl-5-morpholino-6-oxo-1,6-dihydropyridin-3-yl)phenyl)-3-(trifluoromethyl)benzamide] | 3.7 nM
23 | Cc1ccc(C(=O)Nc2ccc(CN)c(C(F)(F)F)c2)cc1-c1cc(N2CCOCC2)c(=O)n(C)c1 [Example 467, N-(4-(aminomethyl)-3-(trifluoromethyl)phenyl)-4-methyl-3-(1-methyl-5-morpholino-6-oxo-1,6-dihydropyridin-3-yl)benzamide] | 12.1 nM
24 | Cc1ccc(NC(=O)c2cc(CO)cc(C(F)(F)F)c2)cc1-c1cc(N2CCOCC2)c(=O)n(C)c1 [Example 469, 3-(hydroxymethyl)-N-(4-methyl-3-(1-methyl-5-morpholino-6-oxo-1,6-dihydropyridin-3-yl)phenyl)-5-(trifluoromethyl)benzamide] | 3.1 nM
